ChEMBL document CHEMBL1201862, “PubChem BioAssay data set” (2004)
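Following 48 hours of exposure in 96-well plates, responses at five concentrations were used to interpolate endpoints linearly. Here, GI50 denotes the concentration required for 50% inhibition of growth.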 Active and inactive are the calls of the source. Cut-off read from the data, not from the text of the source: active = GI50 up to about 1.1 µM and inactive = higher.

Assays:
Experiment in all cases: inhibition of tumour cell growth, NCI panel, 48 h
DLD-1 = system: DLD-1
EKVX = system: EKVX
TK-10 = system: TK-10
HCC 2998 = system: HCC 2998
HL-60 = system: HL-60
DMS-114 = system: DMS-114
SF-539 = system: SF-539
KM12 = system: KM12
HCT-15 = system: HCT-15
OVCAR-3 = system: OVCAR-3
HOP-92 = system: HOP-92
RXF 393 = system: RXF 393
SK-MEL-5 = system: SK-MEL-5
HT-29 = system: HT-29
K562 = system: K562
MOLT-4 = system: MOLT-4
NCI-H23 = system: NCI-H23
SW-620 = system: SW-620
SR = system: SR
LXFL 529 = system: LXFL 529
RPMI-8226 = system: RPMI-8226
HOP-62 = system: HOP-62
U-251 = system: U-251
SNB-75 = system: SNB-75
UACC-257 = system: UACC-257
KM-20L2 = system: KM-20L2
CCRF-CEM = system: CCRF-CEM
SNB-19 = system: SNB-19
NCI-H226 = system: NCI-H226
SK-OV-3 = system: SK-OV-3
NCI-H460 = system: NCI-H460
LOX IMVI = system: LOX IMVI
786-0 = system: 786-0
SF-268 = system: SF-268
IGROV-1 = system: IGROV-1
SK-MEL-2 = system: SK-MEL-2
UO-31 = system: UO-31
SN12C = system: SN12C
HCT-116 = system: HCT-116
COLO 205 = system: COLO 205
SK-MEL-28 = system: SK-MEL-28
NCI-H522 = system: NCI-H522
DMS-273 = system: DMS-273
Malme-3M = system: Malme-3M
OVCAR-5 = system: OVCAR-5
XF498 = system: XF498
UACC-62 = system: UACC-62
OVCAR-8 = system: OVCAR-8
M14 = system: M14
M19-MEL = system: M19-MEL
ACHN = system: ACHN
A549 = system: A549
SNB-78 = system: SNB-78
CAKI-1 = system: CAKI-1
SF-295 = system: SF-295
OVCAR-4 = system: OVCAR-4
A498 = system: A498
HOP-18 = system: HOP-18

With `O=C1OC2(OC2c2ccccc2)c2ccccc21` (configuration not stated) the GI50 (DLD-1) was > 100 µM (inactive), the GI50 (EKVX) was > 100 µM (inactive) and the GI50 (TK-10) was > 100 µM (inactive). The GI50 (HCC 2998) was > 100 µM (inactive), the GI50 (HL-60) was > 100 µM (inactive) and the GI50 (DMS-114) was 1.32 µM (inactive). For the same molecule, the GI50 (SF-539) was > 100 µM (inactive), the GI50 (KM12) was > 100 µM (inactive) and the GI50 (HCT-15) was > 100 µM. The GI50 (OVCAR-3) was > 100 µM (inactive), the GI50 (HOP-92) was > 100 µM (inactive) and the GI50 (RXF 393) was > 100 µM (inactive). The GI50 (SK-MEL-5) was > 100 µM (inactive), the GI50 (HT-29) was > 100 µM (inactive) and the GI50 (K562) was > 100 µM (inactive). The GI50 (MOLT-4) was > 100 µM (inactive), the GI50 (NCI-H23) was > 100 µM (inactive) and the GI50 (SW-620) was > 100 µM (inactive). For the same molecule, the GI50 (SR) was > 100 µM (inactive), the GI50 (LXFL 529) was > 100 µM (inactive) and the GI50 (RPMI-8226) was > 100 µM (inactive). For the same molecule, the GI50 (HOP-62) was > 100 µM (inactive), the GI50 (U-251) was > 100 µM (inactive) and the GI50 (SNB-75) was > 100 µM (inactive). For the same molecule, the GI50 (UACC-257) was > 100 µM (inactive), the GI50 (KM-20L2) was > 100 µM (inactive) and the GI50 (CCRF-CEM) was > 100 µM (inactive). The GI50 (SNB-19) was > 100 µM (inactive), the GI50 (NCI-H226) was > 100 µM (inactive) and the GI50 (SK-OV-3) was > 100 µM (inactive). For the same molecule, the GI50 (NCI-H460) was > 100 µM (inactive), the GI50 (LOX IMVI) was > 100 µM (inactive) and the GI50 (786-0) was > 100 µM (inactive). For the same molecule, the GI50 (SF-268) was > 100 µM (inactive), the GI50 (IGROV-1) was > 100 µM (inactive) and the GI50 (SK-MEL-2) was > 100 µM (inactive). The GI50 (UO-31) was > 100 µM (inactive), the GI50 (SN12C) was > 100 µM (inactive) and the GI50 (HCT-116) was 5.05 µM (inactive). For the same molecule, the GI50 (COLO 205) was > 100 µM (inactive), the GI50 (SK-MEL-28) was > 100 µM (inactive) and the GI50 (NCI-H522) was > 100 µM (inactive). For the same molecule, the GI50 (DMS-273) was > 100 µM (inactive), the GI50 (Malme-3M) was > 100 µM (inactive) and the GI50 (OVCAR-5) was > 100 µM (inactive). For the same molecule, the GI50 (XF498) was > 100 µM (inactive), the GI50 (UACC-62) was > 100 µM (inactive) and the GI50 (OVCAR-8) was > 100 µM (inactive). The GI50 (M14) was > 100 µM (inactive), the GI50 (M19-MEL) was > 100 µM (inactive) and the GI50 (ACHN) was > 100 µM (inactive). For the same molecule, the GI50 (A549) was > 100 µM (inactive).

`O=C1c2cc3c(cc2[C@@H]2NC4CCCC14O2)OCO3` (some centres not stated) was tested, and the GI50 (DLD-1) was > 100 µM (inactive), the GI50 (EKVX) was > 100 µM (inactive) and the GI50 (TK-10) was > 100 µM (inactive). The GI50 (HL-60) was > 100 µM (inactive), the GI50 (DMS-114) was > 100 µM (inactive) and the GI50 (SNB-78) was > 100 µM (inactive). For the same molecule, the GI50 (SF-539) was > 100 µM (inactive), the GI50 (CAKI-1) was > 100 µM (inactive) and the GI50 (KM12) was > 100 µM (inactive). For the same molecule, the GI50 (OVCAR-3) was > 100 µM (inactive), the GI50 (HOP-92) was > 100 µM (inactive) and the GI50 (RXF 393) was > 100 µM (inactive). The GI50 (SK-MEL-5) was > 100 µM (inactive), the GI50 (HT-29) was > 100 µM (inactive) and the GI50 (K562) was > 100 µM (inactive). For the same molecule, the GI50 (MOLT-4) was > 100 µM (inactive), the GI50 (NCI-H23) was > 100 µM (inactive) and the GI50 (SW-620) was > 100 µM (inactive). The GI50 (SF-295) was > 100 µM (inactive), the GI50 (SR) was > 100 µM (inactive) and the GI50 (LXFL 529) was > 100 µM (inactive). For the same molecule, the GI50 (HOP-62) was > 100 µM (inactive), the GI50 (U-251) was > 100 µM (inactive) and the GI50 (SNB-75) was > 100 µM (inactive). For the same molecule, the GI50 (UACC-257) was > 100 µM (inactive), the GI50 (OVCAR-4) was > 100 µM (inactive) and the GI50 (KM-20L2) was > 100 µM (inactive). For the same molecule, the GI50 (CCRF-CEM) was > 100 µM (inactive), the GI50 (SNB-19) was > 100 µM (inactive) and the GI50 (NCI-H226) was > 100 µM (inactive). The GI50 (SK-OV-3) was > 100 µM (inactive), the GI50 (NCI-H460) was > 100 µM (inactive) and the GI50 (786-0) was > 100 µM (inactive). For the same molecule, the GI50 (SF-268) was > 100 µM (inactive), the GI50 (IGROV-1) was > 100 µM (inactive) and the GI50 (SK-MEL-2) was > 100 µM (inactive). For the same molecule, the GI50 (UO-31) was > 100 µM (inactive), the GI50 (SN12C) was > 100 µM (inactive) and the GI50 (HCT-116) was > 100 µM (inactive). The GI50 (SK-MEL-28) was > 100 µM (inactive), the GI50 (NCI-H522) was > 100 µM (inactive) and the GI50 (DMS-273) was > 100 µM (inactive). The GI50 (OVCAR-5) was > 100 µM (inactive), the GI50 (A498) was > 100 µM (inactive) and the GI50 (XF498) was > 100 µM (inactive). For the same molecule, the GI50 (UACC-62) was > 100 µM (inactive), the GI50 (OVCAR-8) was > 100 µM (inactive) and the GI50 (M14) was > 100 µM (inactive). The GI50 (M19-MEL) was > 100 µM (inactive), the GI50 (ACHN) was > 100 µM (inactive) and the GI50 (A549) was > 100 µM (inactive).

For `CCCCNC1CCCCC[C@H]1O` (some centres not stated), the GI50 (DLD-1) was > 100 µM (inactive), the GI50 (EKVX) was > 100 µM (inactive) and the GI50 (TK-10) was > 100 µM (inactive). The GI50 (HCC 2998) was > 100 µM (inactive), the GI50 (HL-60) was > 100 µM (inactive) and the GI50 (DMS-114) was > 100 µM (inactive). For the same molecule, the GI50 (SNB-78) was > 100 µM (inactive), the GI50 (SF-539) was > 100 µM (inactive) and the GI50 (CAKI-1) was > 100 µM (inactive). The GI50 (KM12) was > 100 µM (inactive), the GI50 (OVCAR-3) was > 100 µM (inactive) and the GI50 (HOP-92) was > 100 µM (inactive). The GI50 (RXF 393) was > 100 µM (inactive), the GI50 (SK-MEL-5) was > 100 µM (inactive) and the GI50 (HT-29) was > 100 µM (inactive). The GI50 (K562) was > 100 µM (inactive), the GI50 (MOLT-4) was > 100 µM (inactive) and the GI50 (NCI-H23) was > 100 µM (inactive). The GI50 (SW-620) was > 100 µM (inactive), the GI50 (SF-295) was > 100 µM (inactive) and the GI50 (SR) was > 100 µM (inactive). The GI50 (LXFL 529) was > 100 µM (inactive), the GI50 (RPMI-8226) was > 100 µM (inactive) and the GI50 (HOP-62) was > 100 µM (inactive). For the same molecule, the GI50 (U-251) was > 100 µM (inactive), the GI50 (SNB-75) was > 100 µM (inactive) and the GI50 (UACC-257) was > 100 µM (inactive). For the same molecule, the GI50 (OVCAR-4) was > 100 µM (inactive), the GI50 (KM-20L2) was > 100 µM (inactive) and the GI50 (CCRF-CEM) was > 100 µM (inactive). The GI50 (SNB-19) was > 100 µM (inactive), the GI50 (NCI-H226) was > 100 µM (inactive) and the GI50 (SK-OV-3) was > 100 µM (inactive). For the same molecule, the GI50 (NCI-H460) was > 100 µM (inactive), the GI50 (LOX IMVI) was > 100 µM (inactive) and the GI50 (786-0) was > 100 µM (inactive). For the same molecule, the GI50 (SF-268) was > 100 µM (inactive), the GI50 (HOP-18) was > 100 µM (inactive) and the GI50 (IGROV-1) was > 100 µM (inactive). For the same molecule, the GI50 (SK-MEL-2) was > 100 µM (inactive), the GI50 (UO-31) was > 100 µM (inactive) and the GI50 (SN12C) was > 100 µM (inactive). For the same molecule, the GI50 (HCT-116) was > 100 µM (inactive), the GI50 (COLO 205) was > 100 µM (inactive) and the GI50 (SK-MEL-28) was > 100 µM (inactive). For the same molecule, the GI50 (NCI-H522) was > 100 µM (inactive), the GI50 (DMS-273) was > 100 µM (inactive) and the GI50 (OVCAR-5) was > 100 µM (inactive). For the same molecule, the GI50 (UACC-62) was > 100 µM (inactive), the GI50 (OVCAR-8) was > 100 µM (inactive) and the GI50 (M14) was > 100 µM (inactive). For the same molecule, the GI50 (M19-MEL) was > 100 µM (inactive), the GI50 (ACHN) was > 100 µM (inactive) and the GI50 (A549) was > 100 µM (inactive).
